For one assay, the system named is HL-60. The experiment in a line: In vitro proliferation assay (MTT), HL-60. Type of assay: cell-based. Particulars: Homo sapiens, HL-60; MTT assay; value (SD, n) where given; read-out: HL-60 Leuk. (IC50 µM). Put shortly: (§1)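 Overnight-recovered cultures (1000–2500 cells/well) were treated with compound for 3 days and then given MTT at 37 C for 2–4 hr. Dye was extracted with DMSO and read at 570 nm. IC50s were fitted to the absorbance-versus-concentration data.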

A further assay concerns the target cdk2/cyclin E (Homo sapiens, UniProt P24941). The experiment in a line: Cyclin-dependent kinase assay, cdk2/cyclin E. Particulars: CDK2 IC50, nM, GST-pRb substrate, 10 µM ATP.
The test system of a further assay is PC-3. As to the kind of experiment: In vitro proliferation assay (MTT), PC-3. It counts as cell-based, human. Particulars: Homo sapiens, PC-3, MTT assay; value (SD, n) where given; read-out: PC-3 Prostate (IC50 µM). Put shortly:
(§2)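 Tetrazolium (MTT) reduction measures live cells remaining after 3 days with test compound, following overnight attachment at 1000–2500 cells/well. Dye is taken up in DMSO and read at 570 nm.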

The next assay has as its system Jurkat. The experiment in a line: In vitro proliferation assay (MTT), Jurkat. It counts as cell-based. The note with it: Homo sapiens, MTT assay, value (SD, n) where given, read-out: Jurkat Leuk. (IC50 µM). Put shortly: as §1
(In general: Tetrazolium assays rely on reduction of a dye to a coloured formazan, in cell work by metabolically active cells.)

A further assay deals with cdk1/cyclin B (Homo sapiens, UniProt P06493). The experiment in a line: Cyclin-dependent kinase assay, cdk1/cyclin B. The note with it: CDK1 IC50, nM, Histone H1, 10 µM ATP.
Chain of cdk1/cyclin B (P06493 whole entry): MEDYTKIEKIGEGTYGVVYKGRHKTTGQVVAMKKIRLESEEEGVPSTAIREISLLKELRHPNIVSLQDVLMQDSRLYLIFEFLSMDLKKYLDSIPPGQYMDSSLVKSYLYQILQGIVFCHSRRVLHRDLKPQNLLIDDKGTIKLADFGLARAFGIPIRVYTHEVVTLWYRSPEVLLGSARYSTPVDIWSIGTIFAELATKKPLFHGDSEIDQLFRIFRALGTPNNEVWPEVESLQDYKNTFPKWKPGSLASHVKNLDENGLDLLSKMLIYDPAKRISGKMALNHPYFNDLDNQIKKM
Chain of cdk1/cyclin B (P14635 whole entry partner): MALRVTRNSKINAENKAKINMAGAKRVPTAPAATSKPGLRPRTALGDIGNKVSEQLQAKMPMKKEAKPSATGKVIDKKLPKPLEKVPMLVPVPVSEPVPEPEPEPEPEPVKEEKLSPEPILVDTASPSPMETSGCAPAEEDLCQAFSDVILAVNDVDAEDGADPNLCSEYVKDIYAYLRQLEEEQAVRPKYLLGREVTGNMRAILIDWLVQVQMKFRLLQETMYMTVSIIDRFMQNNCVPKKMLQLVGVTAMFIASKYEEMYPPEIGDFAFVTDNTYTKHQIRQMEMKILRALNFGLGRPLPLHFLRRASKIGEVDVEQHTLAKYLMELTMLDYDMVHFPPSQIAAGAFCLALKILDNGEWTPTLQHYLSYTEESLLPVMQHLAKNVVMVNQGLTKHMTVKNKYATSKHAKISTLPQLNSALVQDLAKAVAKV
The subject of another assay is NCI-H460. As to the kind of experiment: In vitro proliferation assay (MTT), NCI-H460. Type of assay: cell-based. The note with it: Homo sapiens, NCI-H460; MTT assay; value (SD, n) where given; read-out: H-460 Lung (IC50 µM). Put shortly:
as §1

For another assay, the target named is cdk4/cyclin D1 (Homo sapiens, UniProt P11802). The experiment in a line: Cyclin-dependent kinase assay, cdk4/cyclin D1. Type of assay: biochemical. Particulars: cyclin D1/cdk4; GST-pRb substrate, 10 µM ATP.
Chain of cdk4/cyclin D1 (P11802 whole entry): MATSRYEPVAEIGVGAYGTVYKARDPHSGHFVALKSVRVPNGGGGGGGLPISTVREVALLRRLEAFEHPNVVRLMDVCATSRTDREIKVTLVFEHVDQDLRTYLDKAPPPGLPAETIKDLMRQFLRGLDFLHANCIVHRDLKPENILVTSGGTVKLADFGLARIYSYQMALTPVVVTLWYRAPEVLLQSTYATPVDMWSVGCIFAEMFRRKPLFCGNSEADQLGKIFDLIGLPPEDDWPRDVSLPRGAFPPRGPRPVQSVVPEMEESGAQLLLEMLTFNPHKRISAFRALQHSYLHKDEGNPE
Chain of cdk4/cyclin D1 (P24385 whole entry partner): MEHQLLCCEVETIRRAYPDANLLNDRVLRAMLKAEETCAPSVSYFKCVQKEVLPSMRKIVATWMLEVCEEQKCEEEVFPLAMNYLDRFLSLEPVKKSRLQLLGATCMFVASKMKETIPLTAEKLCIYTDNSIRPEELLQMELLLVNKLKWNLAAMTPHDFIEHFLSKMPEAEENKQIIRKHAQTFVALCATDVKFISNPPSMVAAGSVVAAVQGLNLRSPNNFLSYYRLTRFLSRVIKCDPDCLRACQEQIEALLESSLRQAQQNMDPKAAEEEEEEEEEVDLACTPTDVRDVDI
In a further assay the test system is Colo-205. The experiment in a line: In vitro proliferation assay (MTT), Colo-205. Particulars: Homo sapiens, COLO 205; MTT assay; value (SD, n) where given; read-out: Colo-205 Colon (IC50 µM). It counts as cell-based. Put shortly:
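After 3 days of compound exposure, MTT was added to Colo-205 cultures for 2–4 h at 37 °C. Formazan was dissolved in DMSO and absorbance read at 570 nm. Cells had been plated at 1000–2500/well and left to recover overnight; IC50 values came from the raw readings.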

For a further assay, the system named is MDA-MB-435. The experiment in a line: In vitro proliferation assay (MTT), MDA-MB-435. It counts as cell-based, human. The note with it: Homo sapiens, MDA-MB-435, MTT assay; value (SD, n) where given; read-out: MB-435 Breast (IC50 µM). Put shortly:
as §2

Usually IC50 stands for the concentration that gives 50% inhibition.

Structures can show the parent of a compound that is named as a salt. Some results are limits rather than exact numbers.

Consider `N[C@H]1CC[C@H](Nc2nc(NC3CCN(C(=O)Nc4cccc(Br)c4)CC3)c3ncn(C4CCCC4)c3n2)CC1` [compound 170, trans-4-[2-(4-Amino-cyclohexylamino)-9-cyclopentyl-9H-purin-6-ylamino]-piperidine-1-carboxylic acid (3-bromo-phenyl)-amide dihydrochloride], for which the IC50 with HL-60 is less than 0.02 µM; on cdk2/cyclin E, 51 nM; with PC-3, 0.26 µM; in the assay with Jurkat, 0.24 µM; at cdk1/cyclin B, 3 nM; in the assay with NCI-H460 it was 0.3 µM. In addition, the concentration for half-maximal inhibition (IC50) against cdk4/cyclin D1 was 0.156 µM; with Colo-205 it was less than 0.02 µM; in the assay with MDA-MB-435 it was 0.19 µM.

`CCOc1ccccc1NC(=O)N1CCC(Nc2nc(N[C@H]3CC[C@H](N)CC3)nc3c2ncn3C2CCCC2)CC1` [compound 171, trans-4-[2-(4-Amino-cyclohexylamino)-9-cyclopentyl-9H-purin-6-ylamino]-piperidine-1-carboxylic acid (2-ethoxy-phenyl)-amide dihydrochloride]: the IC50 in the assay on HL-60 amounted to 0.05 µM; on cdk2/cyclin E, 89 nM; in the assay on PC-3 it was 0.23 µM; in the assay with Jurkat it was 0.31 µM; against cdk1/cyclin B, 51 nM; with NCI-H460 it was 0.23 µM. For the same compound, the IC50 turned out to be 0.963 µM against cdk4/cyclin D1, 0.14 µM with Colo-205 and 0.25 µM in the assay on MDA-MB-435.

In the case of `N[C@H]1CC[C@H](Nc2nc(NC3CCN(C(=O)Nc4ccc(OC(F)(F)F)cc4)CC3)c3ncn(C4CCCC4)c3n2)CC1` [compound 175, trans-4-[2-(4-Amino-cyclohexylamino)-9-cyclopentyl-9H-purin-6-ylamino]-piperidine-1-carboxylic acid (4-trifluoromethoxy-phenyl)-amide dihydrochloride], the half-inhibitory concentration (IC50) with HL-60 worked out at 0.04 µM; at cdk2/cyclin E it was 114 nM; with PC-3, 0.2 µM; in the assay on Jurkat, 0.16 µM; at cdk1/cyclin B it was 12 nM; with NCI-H460 it was 0.23 µM. Besides, the IC50 was 0.682 µM on cdk4/cyclin D1, 0.05 µM in the assay on Colo-205 and 0.12 µM in the assay with MDA-MB-435.

For the compound `N[C@H]1CC[C@H](Nc2nc(NC3CCN(C(=O)Nc4cc(C(F)(F)F)ccc4Cl)CC3)c3ncn(C4CCCC4)c3n2)CC1` [compound 177, trans-4-[2-(4-Amino-cyclohexylamino)-9-cyclopentyl-9H-purin-6-ylamino]-piperidine-1-carboxylic acid (2-chloro-5-trifluoromethyl-phenyl)-amide dihydrochloride], the concentration for half-maximal inhibition (IC50) in the assay on HL-60 stood at 0.03 µM; at cdk2/cyclin E, 60 nM; with PC-3, 0.15 µM; with Jurkat, 0.21 µM; on cdk1/cyclin B, 7 nM; in the assay with NCI-H460 it was 0.14 µM. The IC50 against cdk4/cyclin D1 worked out at 0.432 µM; in the assay with Colo-205 it was 0.12 µM; in the assay on MDA-MB-435, 0.17 µM.

As for `N[C@H]1CC[C@H](Nc2nc(NC3CCN(C(=O)Nc4ccc(Cl)cc4C(F)(F)F)CC3)c3ncn(C4CCCC4)c3n2)CC1` [compound 178, trans-4-[2-(4-Amino-cyclohexylamino)-9-cyclopentyl-9H-purin-6-ylamino]-piperidine-1-carboxylic acid (4-chloro-2-trifluoromethyl-phenyl)-amide dihydrochloride], the IC50 is less than 0.02 µM in the assay with HL-60; 100 nM on cdk2/cyclin E; 0.16 µM with PC-3; 0.28 µM with Jurkat; 49 nM against cdk1/cyclin B; 0.23 µM in the assay on NCI-H460. Also, the IC50 against cdk4/cyclin D1 stood at 0.879 µM; in the assay on Colo-205, 0.09 µM; with MDA-MB-435 it was 0.14 µM.

`N[C@H]1CC[C@H](Nc2nc(NC3CCN(C(=O)Nc4ccc(Cl)c(C(F)(F)F)c4)CC3)c3ncn(C4CCCC4)c3n2)CC1` [compound 179, trans-4-[2-(4-Amino-cyclohexylamino)-9-cyclopentyl-9H-purin-6-ylamino]-piperidine-1-carboxylic acid (4-chloro-3-trifluoromethyl-phenyl)-amide dihydrochloride]: the concentration for half-maximal inhibition (IC50) in the assay on HL-60 was 0.07 µM; at cdk2/cyclin E it was 261 nM; with PC-3, 0.37 µM; in the assay on Jurkat it was 0.5 µM; against cdk1/cyclin B, 8 nM; with NCI-H460 it was 0.5 µM. Besides, the IC50 against cdk4/cyclin D1 turned out to be 0.497 µM; in the assay on Colo-205, 0.18 µM; with MDA-MB-435 it was 0.24 µM.

In the case of `N[C@H]1CC[C@H](Nc2nc(NC3CCN(C(=O)Nc4cc(F)ccc4F)CC3)c3ncn(C4CCCC4)c3n2)CC1` [compound 180, trans-4-[2-(4-Amino-cyclohexylamino)-9-cyclopentyl-9H-purin-6-ylamino]-piperidine-1-carboxylic acid (2,5-difluoro-phenyl)-amide dihydrochloride], the half-maximal inhibitory concentration (IC50) in the assay with HL-60 is less than 0.02 µM; at cdk2/cyclin E, 44 nM; in the assay with PC-3 it was 0.09 µM; with Jurkat, 0.2 µM; at cdk1/cyclin B it was 12 nM; in the assay on NCI-H460, 0.12 µM. The concentration for half-maximal inhibition (IC50) against cdk4/cyclin D1 was determined as 0.431 µM; in the assay with Colo-205, 0.04 µM; with MDA-MB-435, 0.1 µM.

Regarding `N[C@H]1CC[C@H](Nc2nc(NC3CCN(C(=O)Nc4cc(Cl)cc(Cl)c4)CC3)c3ncn(C4CCCC4)c3n2)CC1` [compound 182, trans-4-[2-(4-Amino-cyclohexylamino)-9-cyclopentyl-9H-purin-6-ylamino]-piperidine-1-carboxylic acid (3,5-dichloro-phenyl)-amide dihydrochloride], the 50% inhibitory concentration (IC50) with HL-60 came out at 0.02 µM; on cdk2/cyclin E it was 174 nM; in the assay with PC-3 it was 0.1 µM; with Jurkat, 0.17 µM; at cdk1/cyclin B, 32 nM; with NCI-H460, 0.12 µM. Moreover, the results for the IC50 against cdk4/cyclin D1, with Colo-205 and in the assay with MDA-MB-435 were 0.305 µM, less than 0.02 µM and 0.15 µM, respectively.

As for `Cc1ccc(NC(=O)N2CCC(Nc3nc(N[C@H]4CC[C@H](N)CC4)nc4c3ncn4C3CCCC3)CC2)cc1` [compound 183, trans-4-[2-(4-Amino-cyclohexylamino)-9-cyclopentyl-9H-purin-6-ylamino]-piperidine-1-carboxylic acid (4-methyl-phenyl)-amide dihydrochloride], the IC50 in the assay on HL-60 is less than 0.02 µM; on cdk2/cyclin E, 64 nM; in the assay with PC-3, 0.17 µM; in the assay with Jurkat, 0.19 µM; against cdk1/cyclin B, 17 nM; in the assay with NCI-H460, 0.2 µM. The IC50 against cdk4/cyclin D1 amounted to 0.338 µM; in the assay on Colo-205, 0.05 µM; with MDA-MB-435, 0.11 µM.

As to `CSc1ccc(NC(=O)N2CCC(Nc3nc(N[C@H]4CC[C@H](N)CC4)nc4c3ncn4C3CCCC3)CC2)cc1` [compound 186, trans-4-[2-(4-Amino-cyclohexylamino)-9-cyclopentyl-9H-purin-6-ylamino]-piperidine-1-carboxylic acid (4-methylsulfanyl-phenyl)-amide dihydrochloride], the half-inhibitory concentration (IC50) in the assay with HL-60 was less than 0.02 µM; at cdk2/cyclin E, 56 nM; with PC-3 it was 0.16 µM; in the assay on Jurkat, 0.21 µM; on cdk1/cyclin B, 11 nM; in the assay on NCI-H460 it was 0.28 µM. In addition, the concentration for half-maximal inhibition (IC50) at cdk4/cyclin D1 came out at 0.465 µM; in the assay on Colo-205 it was 0.03 µM; in the assay with MDA-MB-435 it was 0.09 µM.

In the case of `N[C@H]1CC[C@H](Nc2nc(NC3CCN(C(=O)Nc4ccccc4-c4ccccc4)CC3)c3ncn(C4CCCC4)c3n2)CC1` [compound 187, trans-4-[2-(4-Amino-cyclohexylamino)-9-cyclopentyl-9H-purin-6-ylamino]-piperidine-1-carboxylic acid biphenyl-2-yl-amide dihydrochloride], the IC50 is less than 0.02 µM in the assay with HL-60; 61 nM against cdk2/cyclin E; 0.19 µM with PC-3; 0.35 µM in the assay on Jurkat; 280 nM on cdk1/cyclin B; 0.25 µM in the assay on NCI-H460. Moreover, the values for the IC50 at cdk4/cyclin D1, with Colo-205 and in the assay on MDA-MB-435 were 0.831 µM, 0.19 µM and 0.21 µM, respectively.

For the compound `CC(C)c1ccc(NC(=O)N2CCC(Nc3nc(N[C@H]4CC[C@H](N)CC4)nc4c3ncn4C3CCCC3)CC2)cc1` [compound 190, trans-4-[2-(4-Amino-cyclohexylamino)-9-cyclopentyl-9H-purin-6-ylamino]-piperidine-1-carboxylic acid (4-isopropyl-phenyl)-amide dihydrochloride], the concentration for half-maximal inhibition (IC50) in the assay on HL-60 is less than 0.02 µM; at cdk2/cyclin E, 40 nM; in the assay with PC-3 it was 0.2 µM; in the assay on Jurkat, 0.2 µM; against cdk1/cyclin B, 23 nM; in the assay on NCI-H460 it was 0.36 µM. The half-maximal inhibitory concentration (IC50) on cdk4/cyclin D1 is 0.357 µM; with Colo-205 it was 0.02 µM; in the assay on MDA-MB-435, 0.09 µM.

(Values after patent EP1377579B1 (Aventis Pharmaceuticals Inc., priority 2000, dated 2002).)
